Data from patent US10954214B2 (Janssen Pharmaceutica NV, priority 2016, dated 2021).

Experiments:
[1] = test system: IL6 secretion by OCI-LY3 ABC-DLBCL cells; assay: Human IL6 Mesoscale assay (OCI-LY3); format: cell-based; conditions: 24 h
Outline: (§1)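 100,000 cells/well treated with compound in 9 twofold steps from 15 μM to 58.6 nM (0.3% DMSO) for 24 h at 37° C; supernatant cytokine measured by MSD electrochemiluminescence sandwich immunoassay. DMSO wells set maximum signal, BTK inhibitor RN486 (30 nM to 131 pM) set maximum inhibition.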

[2] = target: full-length MALT1 protein (Strep-MALT1(1-824)-His) (Homo sapiens (Human), UniProt Q9UDY8); assay: MALT1 Biochemical Protease Assay (Ac-LRSR-AMC substrate); conditions: 10 nM FL MALT1, 200 μM Ac-LRSR-AMC, 4 h at RT; read-out: MALT1_Biochemical activity (Ac-LRSR-amc) IC50
Outline: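 Fluorescence from AMC release off the quenched LRSR substrate was read after a 4 h reaction at RT. Values were normalised to no-enzyme and uninhibited controls and fitted for IC50 and Hill coefficient.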

[3] = test system: IL10 secretion by OCI-LY3 ABC-DLBCL cells; assay: Human IL10 Mesoscale assay (OCI-LY3); format: cell-based; conditions: 24 h
Outline: as §1

Sequence of full-length MALT1 protein (Strep-MALT1(1-824)-His) (Q9UDY8 whole entry): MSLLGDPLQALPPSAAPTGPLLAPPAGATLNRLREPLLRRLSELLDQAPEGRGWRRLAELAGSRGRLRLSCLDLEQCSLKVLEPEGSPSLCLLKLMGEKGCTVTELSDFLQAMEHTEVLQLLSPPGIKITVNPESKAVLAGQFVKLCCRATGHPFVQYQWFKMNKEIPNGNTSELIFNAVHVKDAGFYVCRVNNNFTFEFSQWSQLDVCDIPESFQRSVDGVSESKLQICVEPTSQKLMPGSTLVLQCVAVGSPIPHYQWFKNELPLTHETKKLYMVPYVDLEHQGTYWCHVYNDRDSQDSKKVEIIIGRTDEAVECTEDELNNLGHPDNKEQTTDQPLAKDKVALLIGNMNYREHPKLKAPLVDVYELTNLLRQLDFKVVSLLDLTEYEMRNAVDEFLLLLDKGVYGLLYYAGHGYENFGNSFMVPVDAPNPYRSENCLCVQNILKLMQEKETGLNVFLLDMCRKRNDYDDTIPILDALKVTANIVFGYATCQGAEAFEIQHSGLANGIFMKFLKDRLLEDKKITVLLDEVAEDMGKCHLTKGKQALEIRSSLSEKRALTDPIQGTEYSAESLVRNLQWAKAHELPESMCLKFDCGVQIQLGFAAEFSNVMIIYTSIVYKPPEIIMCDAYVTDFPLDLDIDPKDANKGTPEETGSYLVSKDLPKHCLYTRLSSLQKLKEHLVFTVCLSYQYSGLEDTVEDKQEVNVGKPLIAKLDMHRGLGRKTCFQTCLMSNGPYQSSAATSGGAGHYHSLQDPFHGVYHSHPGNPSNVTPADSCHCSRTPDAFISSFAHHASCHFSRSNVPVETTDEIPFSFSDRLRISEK

Row | Compound | IC50 ([1]; Homo sapiens) [µM] | IC50 [2] [µM] | IC50 ([3]; Homo sapiens) [µM] | IC50 [1] [µM] | IC50 [3] [µM]
1 | N#Cc1cc(NC(=O)c2cnn(-c3ccnc4cn[nH]c34)c2C(F)(F)F)cnc1-n1nccn1 [Cpd 262, N-(5-cyano-6-(2H-1,2,3-triazol-2-yl)pyridin-3-yl)-1-(1H-pyrazolo[4,3-b]pyridin-7-yl)-5-(trifluoromethyl)-1H-pyrazole-4-carboxamide] | 0.182 | 0.191 | 0.129 | – | –
2 | O=C(Nc1cnc(-n2nccn2)c(Cl)c1)c1cnn(-c2cccc3nc(C4CCCO4)ccc23)c1C(F)(F)F (stereo not drawn) [Cpd 372, N-(5-chloro-6-(2H-1,2,3-triazol-2-yl)pyridin-3-yl)-1-(2-(tetrahydrofuran-2-yl)quinolin-5-yl)-5-(trifluoromethyl)-1H-pyrazole-4-carboxamide] | 0.012 | 2 | 0.012 | – | –
3 | O=C(Nc1cncc(Cl)c1)c1cnn(-c2cccc3c(=O)[nH]ccc23)c1C(F)(F)F [Cpd 353, N-(5-chloropyridin-3-yl)-1-(1-oxo-1,2-dihydroisoquinolin-5-yl)-5-(trifluoromethyl)-1H-pyrazole-4-carboxamide] | 0.692 | 0.115 | 0.537 | – | –
4 | O=C(Nc1cnc(-n2nccn2)c(Cl)c1)c1cnn(-c2c[n+]([O-])cc3sccc23)c1C(F)(F)F [Cpd 409, 4-(4-((5-chloro-6-(2H-1,2,3-triazol-2-yl)pyridin-3-yl)carbamoyl)-5-(trifluoromethyl)-1H-pyrazol-1-yl)thieno[2,3-c]pyridine 6-oxide] | 0.098 | 2.29 | 0.095 | – | –
5 | N-(5-cyano-6-(2H-1,2,3-triazol-2-yl)pyridin-3-yl)-1-(imidazo[1,2-a]pyrazin-5-yl)-3-(trifluoromethyl)-1H-pyrazole-4-carboxamide [Cpd 275] | – | 0.138 | – | 0.24 | 0.234
6 | O=C(Nc1cnc(-n2nccn2)c(Cl)c1)c1cnn(-c2cnc(C3COCCO3)c3ccccc23)c1C(F)(F)F (stereo not drawn) [Cpd 367, 1-(1-(1,4-dioxan-2-yl)isoquinolin-4-yl)-N-(5-chloro-6-(2H-1,2,3-triazol-2-yl)pyridin-3-yl)-5-(trifluoromethyl)-1H-pyrazole-4-carboxamide] | 0.115 | 0.11 | 0.098 | – | –
7 | N#Cc1cc(NC(=O)c2cnn(-c3ccnc4nccn34)c2C(F)(F)F)cnc1-n1nccn1 [Cpd 250, N-(5-cyano-6-(2H-1,2,3-triazol-2-yl)pyridin-3-yl)-1-(imidazo[1,2-a]pyrimidin-5-yl)-5-(trifluoromethyl)-1H-pyrazole-4-carboxamide] | 0.269 | 0.316 | 0.407 | – | –
8 | CSc1ncc(-n2ncc(C(=O)Nc3cnc(-n4nccn4)c(Cl)c3)c2C(F)(F)F)c2ccccc12 [Cpd 429, N-(5-chloro-6-(2H-1,2,3-triazol-2-yl)pyridin-3-yl)-1-(1-(methylthio)isoquinolin-4-yl)-5-(trifluoromethyl)-1H-pyrazole-4-carboxamide] | 0.251 | 0.03 | 0.112 | – | –
9 | Cc1cc2nccc(-n3ncc(C(=O)Nc4cnc(-n5nccn5)c(C#N)c4)c3C(F)(F)F)c2s1 [Cpd 232, N-(5-cyano-6-(2H-1,2,3-triazol-2-yl)pyridin-3-yl)-1-(2-methylthieno[3,2-b]pyridin-7-yl)-5-(trifluoromethyl)-1H-pyrazole-4-carboxamide] | 0.145 | 0.891 | 0.182 | – | –
10 | O=C(Nc1ccnc(C(F)(F)F)c1)c1cnn(-c2cnc(N3CC(O)C3)c3sccc23)c1C(F)(F)F [Cpd 210, 1-(7-(3-hydroxyazetidin-1-yl)thieno[2,3-c]pyridin-4-yl)-5-(trifluoromethyl)-N-(2-(trifluoromethyl)pyridin-4-yl)-1H-pyrazole-4-carboxamide] | 0.417 | 0.072 | 0.38 | – | –
11 | CC(O)c1cc(-n2ncc(C(=O)Nc3cnc(-n4nccn4)c(Cl)c3)c2C(F)(F)F)c2ccccc2n1 (stereo not drawn) [Cpd 374, N-(5-chloro-6-(2H-1,2,3-triazol-2-yl)pyridin-3-yl)-1-(2-(1-hydroxyethyl)quinolin-4-yl)-5-(trifluoromethyl)-1H-pyrazole-4-carboxamide] | 0.072 | 0.087 | 0.04 | – | –
12 | O=C(Nc1cnc(-n2nccn2)c(Cl)c1)c1cnn(-c2cc(C3CCN3)nc3ccccc23)c1C(F)(F)F (stereo not drawn) [Cpd 382, 1-(2-(azetidin-2-yl)quinolin-4-yl)-N-(5-chloro-6-(2H-1,2,3-triazol-2-yl)pyridin-3-yl)-5-(trifluoromethyl)-1H-pyrazole-4-carboxamide] | 0.029 | 0.331 | 0.026 | – | –
13 | COc1cc(-n2ncc(C(=O)Nc3cnc(-n4nccn4)c(Cl)c3)c2C(F)(F)F)c2ccccc2n1 [Cpd 417, N-(5-chloro-6-(2H-1,2,3-triazol-2-yl)pyridin-3-yl)-1-(2-methoxyquinolin-4-yl)-5-(trifluoromethyl)-1H-pyrazole-4-carboxamide] | 0.437 | 0.174 | 0.309 | – | –
14 | O=C(Nc1cnc(-n2nccn2)c(Cl)c1)c1cnn(-c2cnc(C3CC3)c3sccc23)c1C(F)(F)F [Cpd 435, N-(5-chloro-6-(2H-1,2,3-triazol-2-yl)pyridin-3-yl)-1-(7-cyclopropylthieno[2,3-c]pyridin-4-yl)-5-(trifluoromethyl)-1H-pyrazole-4-carboxamide] | 0.079 | 0.17 | 0.081 | – | –
15 | Cc1cc(NC(=O)c2cnn(-c3cnc(N)c4ccccc34)c2C(F)(F)F)c(C)nc1-n1nccn1 [Cpd 334, 1-(1-aminoisoquinolin-4-yl)-N-(2,5-dimethyl-6-(2H-1,2,3-triazol-2-yl)pyridin-3-yl)-5-(trifluoromethyl)-1H-pyrazole-4-carboxamide] | 0.186 | 0.417 | 0.251 | – | –
16 | N#Cc1cc(NC(=O)c2cnn(-c3cccc4nc(N)ccc34)c2C(F)(F)F)cnc1-n1nccn1 [Cpd 332, 1-(2-aminoquinolin-5-yl)-N-(5-cyano-6-(2H-1,2,3-triazol-2-yl)pyridin-3-yl)-5-(trifluoromethyl)-1H-pyrazole-4-carboxamide] | 0.048 | 0.417 | 0.044 | – | –
17 | N#Cc1cc(NC(=O)c2cnn(-c3cccc4cn[nH]c34)c2C(F)(F)F)cnc1-n1nccn1 [Cpd 286, N-(5-cyano-6-(2H-1,2,3-triazol-2-yl)pyridin-3-yl)-1-(1H-indazol-7-yl)-5-(trifluoromethyl)-1H-pyrazole-4-carboxamide] | 0.2 | 0.11 | 0.2 | – | –
18 | O=C(Nc1ccnc(C2CC2)c1)c1cnn(-c2cccc3c(=O)[nH]ccc23)c1C(F)(F)F [Cpd 350, N-(2-cyclopropylpyridin-4-yl)-1-(1-oxo-1,2-dihydroisoquinolin-5-yl)-5-(trifluoromethyl)-1H-pyrazole-4-carboxamide] | 0.204 | 1.26 | 0.182 | – | –
19 | Cc1cc(-n2nccn2)c(C#N)cc1NC(=O)c1cnn(-c2cccc3scnc23)c1C(F)(F)F [Cpd 298, 1-(benzo[d]thiazol-4-yl)-N-(5-cyano-2-methyl-4-(2H-1,2,3-triazol-2-yl)phenyl)-5-(trifluoromethyl)-1H-pyrazole-4-carboxamide] | 0.05 | 1.35 | 0.025 | – | –
20 | Cc1nc(-n2nccn2)c(Cl)cc1NC(=O)c1cnn(-c2c[n+]([O-])cc3sccc23)c1C(F)(F)F [Cpd 410, 4-(4-((5-chloro-2-methyl-6-(2H-1,2,3-triazol-2-yl)pyridin-3-yl)carbamoyl)-5-(trifluoromethyl)-1H-pyrazol-1-yl)thieno[2,3-c]pyridine 6-oxide] | 0.093 | 0.071 | 0.068 | – | –
21 | O=C(Nc1ccnc(C(F)(F)F)c1)c1cnn(-c2cncc3sccc23)c1C(F)(F)F [Cpd 364, 1-(thieno[2,3-c]pyridin-4-yl)-5-(trifluoromethyl)-N-(2-(trifluoromethyl)pyridin-4-yl)-1H-pyrazole-4-carboxamide] | 0.028 | 0.098 | 0.031 | – | –
22 | N#Cc1cc(-n2ncc(C(=O)Nc3cnc(-n4nccn4)c(Cl)c3)c2C(F)(F)F)c2ccccc2n1 [Cpd 412, N-(5-chloro-6-(2H-1,2,3-triazol-2-yl)pyridin-3-yl)-1-(2-cyanoquinolin-4-yl)-5-(trifluoromethyl)-1H-pyrazole-4-carboxamide] | 1.78 | 0.022 | 0.912 | – | –
23 | N#Cc1cc(NC(=O)c2cnn(-c3ncnc4occc34)c2C(F)(F)F)cnc1-n1nccn1 [Cpd 292, N-(5-cyano-6-(2H-1,2,3-triazol-2-yl)pyridin-3-yl)-1-(furo[2,3-d]pyrimidin-4-yl)-5-(trifluoromethyl)-1H-pyrazole-4-carboxamide] | 0.151 | 0.079 | 0.115 | – | –
24 | N#Cc1cc(NC(=O)c2cnn(-c3cccc4c(N)nccc34)c2C(F)(F)F)cnc1-n1nccn1 [Cpd 328, 1-(1-aminoisoquinolin-5-yl)-N-(5-cyano-6-(2H-1,2,3-triazol-2-yl)pyridin-3-yl)-5-(trifluoromethyl)-1H-pyrazole-4-carboxamide] | 0.741 | 2.57 | 0.589 | – | –
25 | CNC(=O)c1ncc(-n2ncc(C(=O)Nc3cnc(-n4nccn4)c(Cl)c3)c2C(F)(F)F)c2ccccc12 [Cpd 390, 4-(4-((5-chloro-6-(2H-1,2,3-triazol-2-yl)pyridin-3-yl)carbamoyl)-5-(trifluoromethyl)-1H-pyrazol-1-yl)-N-methylisoquinoline-1-carboxamide] | 0.098 | 0.102 | 0.083 | – | –
